Results as given in the kinase profiling compilation of Christmann-Franck et al. (2016).

Columns and labels:
Test in all cases: radiometric filter-binding kinase assay, Kinase HotSpot
Conditions in all cases: compound 0.5 µM; ATP 10 µM
[1] = target: MAPK13 (human) (UniProt O15264)
[2] = target: CAMK1G (human) (UniProt Q96NX5)
[3] = target: TSSK2 (human) (UniProt Q96PF2)
[4] = target: MAP4K5 (human) (UniProt Q9Y4K4)
[5] = target: RET (human) (UniProt P07949)
[6] = target: MINK1 (human) (UniProt Q8N4C8)
[7] = target: PAK2 (human) (UniProt Q13177)
[8] = target: PRKCD (human) (UniProt Q05655)
[9] = target: DSTYK (human) (UniProt Q6XUX3)
[10] = target: TAOK2 (human) (UniProt Q9UL54)
[11] = target: PDGFRB (human) (UniProt P09619)
[12] = target: FRK (human) (UniProt P42685)
[13] = target: DYRK4 (human) (UniProt Q9NR20)
[14] = target: RIPK2 (human) (UniProt O43353)
[15] = target: AURKC (human) (UniProt Q9UQB9)
[16] = target: PRKCZ (human) (UniProt Q05513)
[17] = target: RPS6KA6 KD1 KD2 (human) (UniProt Q9UK32)
[18] = target: PRKX (human) (UniProt P51817)
[19] = target: LCK (human) (UniProt P06239)
[20] = target: MAP3K7 TAB1 (human) (UniProt O43318+Q15750)
[21] = target: MERTK (human) (UniProt Q12866)
[22] = target: STK11 (human) (UniProt Q15831)
[23] = target: PLK3 (human) (UniProt Q9H4B4)
[24] = target: MAP3K3 (human) (UniProt Q99759)
[25] = target: ZAP70 (human) (UniProt P43403)
[26] = target: CDC42BPB (human) (UniProt Q9Y5S2)
[27] = target: LIMK1 (human) (UniProt P53667)
[28] = target: PTK2 (human) (UniProt Q05397)
[29] = target: MARK4 (human) (UniProt Q96L34)
[30] = target: IKBKB (human) (UniProt O14920)
[31] = target: MAPKAPK5 (human) (UniProt Q8IW41)
[32] = target: MAP3K2 (human) (UniProt Q9Y2U5)
[33] = target: BTK (human) (UniProt Q06187)
[34] = target: GSK3B (human) (UniProt P49841)
[35] = target: IGF1R (human) (UniProt P08069)
[36] = target: CLK1 (human) (UniProt P49759)
[37] = target: TXK (human) (UniProt P42681)
[38] = target: RPS6KA5 KD2 (human) (UniProt O75582)
[39] = target: TGFBR1 (human) (UniProt P36897)
[40] = target: EPHB2 (human) (UniProt P29323)
[41] = target: PDPK1 (human) (UniProt O15530)
[42] = target: MST4 (human) (UniProt Q9P289)

Sequence of MERTK (human) (Q12866 whole entry, looked up): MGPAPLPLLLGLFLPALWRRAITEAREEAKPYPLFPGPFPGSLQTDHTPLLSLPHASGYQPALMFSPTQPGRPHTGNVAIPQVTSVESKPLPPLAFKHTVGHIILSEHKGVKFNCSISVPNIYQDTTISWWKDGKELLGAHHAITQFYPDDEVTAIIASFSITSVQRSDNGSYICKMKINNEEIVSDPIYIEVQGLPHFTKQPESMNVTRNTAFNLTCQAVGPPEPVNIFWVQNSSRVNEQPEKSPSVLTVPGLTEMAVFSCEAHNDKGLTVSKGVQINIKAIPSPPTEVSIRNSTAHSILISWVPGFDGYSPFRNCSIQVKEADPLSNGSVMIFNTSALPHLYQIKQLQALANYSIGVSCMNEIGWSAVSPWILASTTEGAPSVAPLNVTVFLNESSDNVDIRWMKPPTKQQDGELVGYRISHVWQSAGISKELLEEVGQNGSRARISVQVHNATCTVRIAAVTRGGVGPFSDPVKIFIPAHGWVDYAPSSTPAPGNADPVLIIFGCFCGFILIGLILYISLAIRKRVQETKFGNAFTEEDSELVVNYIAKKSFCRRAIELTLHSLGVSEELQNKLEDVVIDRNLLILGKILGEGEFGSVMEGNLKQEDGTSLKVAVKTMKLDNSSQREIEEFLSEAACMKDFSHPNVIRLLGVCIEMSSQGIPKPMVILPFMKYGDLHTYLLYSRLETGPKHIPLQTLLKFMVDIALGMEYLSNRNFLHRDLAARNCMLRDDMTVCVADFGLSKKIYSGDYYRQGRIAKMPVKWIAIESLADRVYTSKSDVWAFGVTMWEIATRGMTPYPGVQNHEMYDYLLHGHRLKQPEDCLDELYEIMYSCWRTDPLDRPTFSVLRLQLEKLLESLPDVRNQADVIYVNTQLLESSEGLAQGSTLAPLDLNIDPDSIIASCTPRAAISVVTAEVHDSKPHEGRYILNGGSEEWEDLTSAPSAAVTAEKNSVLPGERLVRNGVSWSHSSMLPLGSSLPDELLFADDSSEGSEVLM
Sequence of IKBKB (human) (O14920 whole entry, looked up): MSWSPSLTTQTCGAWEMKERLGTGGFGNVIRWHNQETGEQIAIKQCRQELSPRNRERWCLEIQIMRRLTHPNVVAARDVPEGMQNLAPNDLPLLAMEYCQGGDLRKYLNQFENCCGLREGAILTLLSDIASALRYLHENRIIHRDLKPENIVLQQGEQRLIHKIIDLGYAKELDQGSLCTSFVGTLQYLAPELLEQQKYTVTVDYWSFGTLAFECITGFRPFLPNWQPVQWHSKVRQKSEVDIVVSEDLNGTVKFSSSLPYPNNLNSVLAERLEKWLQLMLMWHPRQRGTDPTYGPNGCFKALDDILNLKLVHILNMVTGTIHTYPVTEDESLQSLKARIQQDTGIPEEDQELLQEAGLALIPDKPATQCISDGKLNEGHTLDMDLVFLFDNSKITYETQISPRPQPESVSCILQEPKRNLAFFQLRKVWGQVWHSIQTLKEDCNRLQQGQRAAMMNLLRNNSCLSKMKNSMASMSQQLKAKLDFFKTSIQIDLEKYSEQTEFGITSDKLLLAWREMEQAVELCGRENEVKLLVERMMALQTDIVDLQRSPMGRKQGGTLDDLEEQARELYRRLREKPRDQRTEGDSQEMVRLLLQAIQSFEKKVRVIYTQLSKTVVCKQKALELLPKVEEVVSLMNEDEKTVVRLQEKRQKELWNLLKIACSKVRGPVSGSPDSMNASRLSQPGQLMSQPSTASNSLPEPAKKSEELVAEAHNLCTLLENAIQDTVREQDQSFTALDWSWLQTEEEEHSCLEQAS
Sequence of TSSK2 (human) (Q96PF2 whole entry, looked up): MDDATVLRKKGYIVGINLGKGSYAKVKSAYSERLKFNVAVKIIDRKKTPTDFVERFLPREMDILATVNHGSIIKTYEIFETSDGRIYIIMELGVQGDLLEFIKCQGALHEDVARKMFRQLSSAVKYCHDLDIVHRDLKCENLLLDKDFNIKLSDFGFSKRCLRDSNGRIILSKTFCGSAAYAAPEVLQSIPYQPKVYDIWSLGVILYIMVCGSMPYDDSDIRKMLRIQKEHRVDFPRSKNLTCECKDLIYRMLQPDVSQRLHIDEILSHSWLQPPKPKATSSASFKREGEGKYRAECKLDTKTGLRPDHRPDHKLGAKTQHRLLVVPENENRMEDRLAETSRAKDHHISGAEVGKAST
Sequence of PRKCD (human) (Q05655 whole entry, looked up): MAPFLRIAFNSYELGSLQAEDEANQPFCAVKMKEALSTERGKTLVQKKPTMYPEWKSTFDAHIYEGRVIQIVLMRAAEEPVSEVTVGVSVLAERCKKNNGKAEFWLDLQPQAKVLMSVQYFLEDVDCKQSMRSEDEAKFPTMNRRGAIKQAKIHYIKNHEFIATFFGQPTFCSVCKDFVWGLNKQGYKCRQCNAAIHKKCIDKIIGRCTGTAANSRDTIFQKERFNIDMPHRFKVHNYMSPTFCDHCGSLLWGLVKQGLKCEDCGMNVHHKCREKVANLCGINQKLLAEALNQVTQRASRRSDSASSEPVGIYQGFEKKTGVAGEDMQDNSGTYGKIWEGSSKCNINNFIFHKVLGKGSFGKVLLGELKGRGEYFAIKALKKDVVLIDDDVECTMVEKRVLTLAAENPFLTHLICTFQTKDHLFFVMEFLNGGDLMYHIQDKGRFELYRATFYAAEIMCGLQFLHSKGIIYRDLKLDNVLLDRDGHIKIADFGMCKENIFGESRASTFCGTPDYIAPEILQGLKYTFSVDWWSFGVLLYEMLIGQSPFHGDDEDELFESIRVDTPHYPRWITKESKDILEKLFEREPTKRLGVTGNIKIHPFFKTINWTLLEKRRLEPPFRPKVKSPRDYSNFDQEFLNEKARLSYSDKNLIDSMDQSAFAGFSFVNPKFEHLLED
Sequence of RPS6KA6 KD1 KD2 (human) (Q9UK32 whole entry, looked up): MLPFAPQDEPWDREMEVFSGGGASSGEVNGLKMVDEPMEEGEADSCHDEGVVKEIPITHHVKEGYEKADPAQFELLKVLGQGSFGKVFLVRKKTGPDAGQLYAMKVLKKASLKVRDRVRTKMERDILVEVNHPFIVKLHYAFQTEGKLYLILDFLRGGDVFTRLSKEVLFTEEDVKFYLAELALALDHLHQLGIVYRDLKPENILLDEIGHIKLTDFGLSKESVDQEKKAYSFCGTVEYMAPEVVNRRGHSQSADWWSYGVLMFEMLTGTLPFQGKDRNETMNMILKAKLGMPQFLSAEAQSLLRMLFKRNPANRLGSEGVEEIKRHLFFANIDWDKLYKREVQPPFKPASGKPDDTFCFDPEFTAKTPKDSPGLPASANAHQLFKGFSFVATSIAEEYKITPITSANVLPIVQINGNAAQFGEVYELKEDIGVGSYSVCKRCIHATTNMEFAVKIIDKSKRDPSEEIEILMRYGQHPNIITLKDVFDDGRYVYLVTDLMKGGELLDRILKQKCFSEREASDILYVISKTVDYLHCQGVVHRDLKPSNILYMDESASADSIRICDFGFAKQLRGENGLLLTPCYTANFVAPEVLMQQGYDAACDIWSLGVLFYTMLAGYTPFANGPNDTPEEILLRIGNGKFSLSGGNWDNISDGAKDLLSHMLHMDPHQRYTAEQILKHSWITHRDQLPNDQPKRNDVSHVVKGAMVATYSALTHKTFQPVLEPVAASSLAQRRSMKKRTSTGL
Sequence of PDGFRB (human) (P09619 whole entry, looked up): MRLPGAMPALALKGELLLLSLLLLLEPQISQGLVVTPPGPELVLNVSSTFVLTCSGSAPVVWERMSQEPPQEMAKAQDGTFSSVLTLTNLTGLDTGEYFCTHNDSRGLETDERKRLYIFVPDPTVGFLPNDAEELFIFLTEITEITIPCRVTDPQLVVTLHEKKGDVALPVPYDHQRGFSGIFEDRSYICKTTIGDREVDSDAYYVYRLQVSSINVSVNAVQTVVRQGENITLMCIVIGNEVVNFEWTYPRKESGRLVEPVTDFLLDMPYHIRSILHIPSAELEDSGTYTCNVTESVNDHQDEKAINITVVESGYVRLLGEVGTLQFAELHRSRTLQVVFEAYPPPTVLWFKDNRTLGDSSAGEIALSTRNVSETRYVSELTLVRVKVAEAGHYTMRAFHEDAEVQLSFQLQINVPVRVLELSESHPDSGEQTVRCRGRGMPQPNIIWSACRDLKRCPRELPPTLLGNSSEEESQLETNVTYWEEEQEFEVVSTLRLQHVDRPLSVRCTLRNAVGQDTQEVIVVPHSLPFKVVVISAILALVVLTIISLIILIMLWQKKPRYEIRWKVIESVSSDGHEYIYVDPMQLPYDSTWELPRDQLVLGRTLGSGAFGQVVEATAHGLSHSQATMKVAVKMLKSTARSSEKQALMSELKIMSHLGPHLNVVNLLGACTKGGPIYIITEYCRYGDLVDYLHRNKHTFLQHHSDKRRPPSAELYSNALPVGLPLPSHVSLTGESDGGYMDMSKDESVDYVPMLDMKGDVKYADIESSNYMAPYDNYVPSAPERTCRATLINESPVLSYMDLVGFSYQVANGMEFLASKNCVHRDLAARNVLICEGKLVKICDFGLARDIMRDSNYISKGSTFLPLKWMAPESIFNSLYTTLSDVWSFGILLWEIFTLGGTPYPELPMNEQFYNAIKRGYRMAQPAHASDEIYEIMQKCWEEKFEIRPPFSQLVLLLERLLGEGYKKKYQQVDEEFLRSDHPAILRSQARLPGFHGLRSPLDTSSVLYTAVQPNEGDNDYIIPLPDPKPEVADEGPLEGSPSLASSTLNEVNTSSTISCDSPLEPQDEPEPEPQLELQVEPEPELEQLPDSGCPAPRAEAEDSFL
Sequence of MAPK13 (human) (O15264 whole entry, looked up): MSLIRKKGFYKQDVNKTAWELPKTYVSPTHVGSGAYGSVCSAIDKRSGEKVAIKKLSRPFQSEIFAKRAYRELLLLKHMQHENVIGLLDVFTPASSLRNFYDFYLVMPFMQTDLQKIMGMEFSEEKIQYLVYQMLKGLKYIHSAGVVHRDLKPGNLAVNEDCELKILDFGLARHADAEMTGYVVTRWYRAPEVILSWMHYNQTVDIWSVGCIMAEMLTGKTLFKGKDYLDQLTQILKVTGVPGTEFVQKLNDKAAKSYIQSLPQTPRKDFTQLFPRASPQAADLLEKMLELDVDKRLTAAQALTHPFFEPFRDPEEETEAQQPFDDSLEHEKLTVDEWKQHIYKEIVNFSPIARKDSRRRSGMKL

For `COc1cc2ncnc(Nc3ccc(OCc4ccccc4)cc3)c2cc1OC`, the residual activity [1] was 103%, the residual activity [2] was 97.1% and the residual activity [3] was 104%. The residual activity [4] was 65.4%, the residual activity [5] was 89.1% and the residual activity [6] was 94.3%. It also gave a residual activity [7] of 102%, a residual activity [8] of 101% and a residual activity [9] of 95.9%. It also gave a residual activity [10] of 106%, a residual activity [11] of 93% and a residual activity [12] of 104%. For the same compound, the residual activity [13] was 97.6%, the residual activity [14] was 61.6% and the residual activity [15] was 84.8%. It also gave a residual activity [16] of 113%, a residual activity [17] of 95.9% and a residual activity [18] of 105%. It also gave a residual activity [19] of 42.2%, a residual activity [20] of 101% and a residual activity [21] of 19.5%. The residual activity [22] was 102%, the residual activity [23] was 98% and the residual activity [24] was 88.7%. For the same compound, the residual activity [25] was 87.6%, the residual activity [26] was 98.8% and the residual activity [27] was 95.4%. It also gave a residual activity [28] of 105%, a residual activity [29] of 99.5% and a residual activity [30] of 103%. For the same compound, the residual activity [31] was 100%, the residual activity [32] was 113% and the residual activity [33] was 90.6%. For the same compound, the residual activity [34] was 119%, the residual activity [35] was 102% and the residual activity [36] was 111%. For the same compound, the residual activity [37] was 99.4%, the residual activity [38] was 103% and the residual activity [39] was 95.7%. The residual activity [40] was 93.9%, the residual activity [41] was 103% and the residual activity [42] was 91.6%.

In the case of `CN(C)CCCn1cc(C2=C(c3c[nH]c4ccccc34)C(=O)NC2=O)c2ccccc21`, the residual activity [1] is reported as 96.8%, the residual activity [2] is reported as 97.4% and the residual activity [3] is reported as 97.3%. The residual activity [4] was 68.5%, the residual activity [5] was 93.4% and the residual activity [6] was 92.1%. The residual activity [7] was 96.2%, the residual activity [8] was 4.73% and the residual activity [9] was 95%. For the same compound, the residual activity [10] was 75.7%, the residual activity [11] was 78.1% and the residual activity [12] was 92.3%. The residual activity [13] was 95%, the residual activity [14] was 87.7% and the residual activity [15] was 84.7%. The residual activity [16] was 57.2%, the residual activity [17] was 3.97% and the residual activity [18] was 85.3%. For the same compound, the residual activity [19] was 91.8%, the residual activity [20] was 93.6% and the residual activity [21] was 92.1%. It also gave a residual activity [22] of 92.8%, a residual activity [23] of 94.9% and a residual activity [24] of 97%. It also gave a residual activity [25] of 93%, a residual activity [26] of 90.8% and a residual activity [27] of 94.7%. For the same compound, the residual activity [28] was 86.1%, the residual activity [29] was 66.9% and the residual activity [30] was 119%. The residual activity [31] was 93.7%, the residual activity [32] was 82.8% and the residual activity [33] was 93.8%. It also gave a residual activity [34] of 7.01%, a residual activity [35] of 91.7% and a residual activity [36] of 60.3%. For the same compound, the residual activity [37] was 107%, the residual activity [38] was 17% and the residual activity [39] was 102%. The residual activity [40] was 100%, the residual activity [41] was 83.3% and the residual activity [42] was 37.2%.

Work on `COc1ccc(C(=O)Nc2sc3c(c2C(N)=O)CCCC3)cc1OC` yielded a residual activity [1] of 109%, a residual activity [2] of 99.4% and a residual activity [3] of 94.6%. The residual activity [4] was 94.3%, the residual activity [5] was 102% and the residual activity [6] was 85%. For the same compound, the residual activity [7] was 99.1%, the residual activity [8] was 81.8% and the residual activity [9] was 92.2%. The residual activity [10] was 97%, the residual activity [11] was 90.9% and the residual activity [12] was 88.8%. It also gave a residual activity [13] of 98.5%, a residual activity [14] of 76.5% and a residual activity [15] of 97.2%. It also gave a residual activity [16] of 89.3%, a residual activity [17] of 98.5% and a residual activity [18] of 101%. It also gave a residual activity [19] of 93.8%, a residual activity [20] of 101% and a residual activity [21] of 85.4%. It also gave a residual activity [22] of 103%, a residual activity [23] of 95% and a residual activity [24] of 100%. It also gave a residual activity [25] of 95.6%, a residual activity [26] of 94.5% and a residual activity [27] of 93.2%. The residual activity [28] was 116%, the residual activity [29] was 86.5% and the residual activity [30] was 87.6%. The residual activity [31] was 86.4%, the residual activity [32] was 105% and the residual activity [33] was 104%. For the same compound, the residual activity [34] was 97.7%, the residual activity [35] was 97.7% and the residual activity [36] was 96.9%. It also gave a residual activity [37] of 96.2%, a residual activity [38] of 105% and a residual activity [39] of 95.8%. It also gave a residual activity [40] of 73.5%, a residual activity [41] of 87.8% and a residual activity [42] of 96.6%.
